{"source": "EPA's ToxValDB 9.5 (doi:10.2903/j.efsa.2009.195r)", "key": {"[1]": {"tested_on": "Anas platyrhynchos", "conditions": "oral, mortality"}, "[2]": {"tested_on": "Apis mellifera", "conditions": "acute; duration: 48 hours; oral; unspecified; mortality"}, "[3]": {"tested_on": "Colinus virginianus"}, "[4]": {"tested_on": "Daphnia magna", "conditions": "chronic/long-term; duration: 21 days; reproduction"}, "[5]": {"tested_on": "Oncorhynchus mykiss"}, "[6]": {"tested_on": "Rattus norvegicus"}, "[7]": {"tested_on": "Tagia sp."}}}
{"smiles": "COC(=O)c1cccc(C)c1S(=O)(=O)NC(=O)Nc1nc(OCC(F)(F)F)nc(N(C)C)n1", "note": "[Triflusulfuron-methyl]", "values": [{"measurement": "LD50", "setting": "[1]; acute, unspecified", "result": "> 2250", "unit": "mg/kg-day"}, {"measurement": "LC50", "setting": "[1]; short-term, feed", "result": "> 1540", "unit": "mg/kg-day"}, {"measurement": "LD50", "setting": "[2]", "result": "> 100", "unit": "µg/piece"}, {"measurement": "LD50", "setting": "[3]; acute, oral, mortality", "result": "> 2250", "unit": "mg/kg-day"}, {"measurement": "NOEC", "setting": "[3]; reproduction developmental", "result": 27.6, "unit": "mg/kg-day"}, {"measurement": "NOEC", "setting": "[4]", "result": 11, "unit": "mg/L"}, {"measurement": "LC50", "setting": "[5]; acute, duration: 96 hours, mortality", "result": 730, "unit": "µg/mL"}, {"measurement": "NOEC", "setting": "[5]; chronic/long-term, duration: 97 days, growth", "result": 57.7, "unit": "mg/L"}, {"measurement": "LD50", "setting": "[6]; acute, oral, mortality", "result": "> 5000", "unit": "mg/kg-day"}, {"measurement": "NOAEL", "setting": "[6]; chronic, duration: 2 years, oral, diet, body weight", "result": 4.06, "unit": "mg/kg-day"}, {"measurement": "NOAEL", "setting": "[6]; developmental, development", "result": 120, "unit": "mg/kg-day"}, {"measurement": "NOAEL", "setting": "[6]; reproduction developmental, body weight", "result": 5.8, "unit": "mg/kg-day"}, {"measurement": "NOAEL", "setting": "[6]; subchronic, duration: 90 days, oral, body weight", "result": 6.6, "unit": "mg/kg-day"}, {"measurement": "LC50", "setting": "[7]; acute, duration: 14 days, mortality", "result": 1000, "unit": "mg/kg"}, {"measurement": "NOEC", "setting": "[7]; chronic/long-term, duration: 56 days", "result": 250, "unit": "mg/kg"}]}
